Columns and labels:
[1] = system: SiHa human HPV16-positive cervical cancer cells; test: Cell-derived xenograft mouse model for cervical cancer (SiHa CDX); assay type: in vivo; conditions: 3 mg/kg, BID, p.o.; for Tumor Size day 37: SiHa CDX, female BALB/c nude mice, Mean ± SEM; for T/C: day 37, tumor-to-control ratio (volume/volume)
Protocol: (§1) Female BALB/c nude mice (7-9 weeks of age) were injected with SiHa human HPV16-positive (Human Papillomavirus type 16) cervical cancer cells. The cells were inoculated subcutaneously into the left flank of 48 mice. When tumors reached a mean volume of approximately 111 mm^3, mice were randomly assigned to eight treatment groups of each six mice (TABLE 18). Body weights were measured three times weekly prior to the initiation of dosing and daily thereafter. Tumor burden was assessed by caliper measurement twice weekly. Dosing breaks were applied when tolerability issues arose (body weight loss>10%). The study was terminated four weeks post first dosing. The experiment was performed in the Crown Bioscience Ltd. (Beijing) testing facility (Ground Floor, Light Muller Building, Changping Sector of Zhongguancun Scientific Park, No. 21 Huoju Road, Changping District, Beijing, CHIN).

[2] = system: HPV-positive head-and-neck squamous cell carcinoma model #HN11303; test: Patient-derived xenograft mouse model for head-and-neck squamous cell carcinoma (HN11303); assay type: in vivo; conditions: for mean TV: subcutaneous HPV-positive HNSCC model, female NMRI nu/nu mice
Protocol: Female NMRI nu/nu mice were injected with cells derived from a human head-and-neck cancer (model #HN11303, an HPV-positive head-and-neck squamous cell carcinoma, EPO-GmbH, Berlin, Germany). The cells were inoculated subcutaneously into the left flank of 40 mice. Thirteen days later tumors reached a mean volume of approximately 107 mm^3, and mice were randomly assigned to five treatment groups of each eight mice (TABLE 23). Body weights were measured twice weekly. Tumor burden was assessed by caliper measurement twice weekly. Dosing breaks were applied when tolerability issues arose (body weight loss>10). The study was terminated five weeks post first dosing. The experiment was performed in the EPO animal testing facility (Experimental Pharmacology and Oncology GmbH, 13125 Berlin-Buch, Germany).

[3] = system: HPV-positive head-and-neck squamous cell carcinoma model #HN10309; test: Patient-derived xenograft mouse model for head-and-neck squamous cell carcinoma (HN10309); assay type: in vivo; conditions: p.o. BID, 30 mg/kg, female NMRI nu/nu mice
Protocol: Female NMRI nu/nu mice were injected with cells derived from a human head-and-neck cancer (model #HN10309, an HPV-positive head-and-neck squamous cell carcinoma, EPO-GmbH, Berlin, Germany). The cells were inoculated subcutaneously into the left flank of 24 mice. Thirty-three days later tumors reached a mean volume of approximately 116 mm^3, and mice were randomly assigned to three treatment groups of each eight mice (TABLE 21). Body weights were measured twice weekly. Tumor burden was assessed by caliper measurement twice weekly. Dosing breaks were applied when tolerability issues arose (body weight loss>[…]). The study was terminated four weeks post first dosing. The experiment was performed in the EPO animal testing facility (Experimental Pharmacology and Oncology GmbH, 13125 Berlin-Buch, Germany).

[4] = system: patient-derived castration-resistant prostate tumor cells (model #PR6511); test: Castration resistant prostate cancer patient-derived xenograft (CRPC PDX); assay type: in vivo, mouse
Protocol: NSG NOD.Cg-PrkdcscidIj2rgtm1Wjl/SzJ mice (6-8 weeks of age) were injected with patient-derived castration-resistant prostate tumor cells (model #PR6511, Crown Bioscience UK Ltd Hillcrest, Osgathorpe Leicestershire, UK). The cells were inoculated subcutaneously into the left flank of 40 male NSG mice. When tumors reached a mean volume of approximately 100 mm^3 (i.e. 100 mm^3+/−54 mm^3, FIG. 3), mice were randomly assigned to five treatment groups of each eight mice (TABLE 9). Body weights were measured three times weekly prior to the initiation of dosing and daily thereafter. Tumor burden was assessed by caliper measurement three times weekly. Dosing breaks were applied when tolerability issues arose (body weight loss>10). Upon completion of the scheduled dosing phase at day 57, tumor outgrowth was monitored for groups 3, 4 and […] up to study day 77. Groups 1 and 2 were terminated on study day 57. Results of the experiment are shown in TABLES 10 and 11; and FIGS. 3 and 4. The experiment was performed in the Crown Bioscience Ltd. testing facility (Crown Bioscience UK Ltd Hillcrest, Dodgeford Lane, Osgathorpe Leicestershire LE12 9TE, UK).

[5] = system: MKN45 human gastric adenocarcinoma cells; test: Cell-derived xenograft mouse model for gastric cancer (MKN45 CDX); assay type: in vivo; conditions: 12 mg/kg, QW, i.v.
Protocol: as §1, with “(8-9” for “(7-9”, “MKN45” for “SiHa”, “gastric adenocarcinoma” for “HPV16-positive (Human Papillomavirus type 16) cervical cancer”, “103” for “111”, “16).” for “18).”, “CHN).” for “CHIN).”

[6] = p.o. QD, 30 mg/kg, groups of eight mice

Row | SMILES | Tumor Size day 37 [1] [mm^3] | T/C [1] [%] | mean TV ([2]; day 13) [cm^3] | mean TV ([2]; day 15) [cm^3] | mean TV ([2]; day 18) [cm^3] | mean TV ([2]; day 21) [cm^3] | mean TV ([2]; day 25) [cm^3] | mean TV ([2]; day 29) [cm^3] | mean TV ([2]; day 33) [cm^3] | mean TV ([2]; day 36) [cm^3] | other results
1 | CC(C)C[C@H]1C(=O)N([C@@H](CC(C)C)C(=O)N2CCC3(C[C@@H]2C)OCC(CN2CCCC2)CO3)CCN1C (stereo partly drawn) [Compound 273, (S)-1-[(S)-1-({(S)-8-Methyl-3-[(1-pyrrolidinyl)methyl]-1,5-dioxa-9-aza-9-spiro[5.5]un-decyl}carbonyl)-3-methylbutyl]-3-isobutyl-4-methyl-2-piperazinone] | 942.0 ± 114.9 | 79.3 | 0.1063 | 0.1073 | 0.0948 | 0.0875 | 0.0451 | 0.0194 | 0.0056 | 0.0031 | mice tumor-free at the end of the observation period ([2]; HN11303 PDX, variable dosages (TABLE 23), all sixteen mice of the two groups): tumor-free
2 | CC(C)C[C@@H]1NCCN([C@@H](CC(C)C)C(=O)N2CCC(CCN3CCC4(CC3)CC4)CC2)C1=O [Compound 282, (S)-1-[(S)-1-[(4-{2-(6-Aza-6-spiro[2.5]octyl)eth-yl}-1-piperidyl)carbonyl]-3-methylbutyl]-3-isobutyl-2-piperazinone] | – | – | 0.1073 | 0.1061 | 0.1040 | 0.0971 | 0.1111 | 0.1030 | 0.1273 | 0.1185 | mean TV ([3]; Day 33): 0.1161 cm^3; mean TV ([3]; Day 35): 0.1308 cm^3; mean TV ([3]; Day 38): 0.1751 cm^3; mean TV ([3]; Day 41): 0.2086 cm^3; mean TV ([3]; Day 45): 0.3560 cm^3; mean TV ([3]; Day 49): 0.4920 cm^3; mean TV ([3]; Day 53): 0.6364 cm^3; mean TV ([3]; Day 56): 0.6558 cm^3
3 | CC(C)C[C@@H]1NCCN([C@@H](CC(C)C)C(=O)N2CCC3(C[C@@H]2C)OCC(CN2CCC2)CO3)C1=O (stereo partly drawn) [Compound 318, (S)-1-[(S)-1-({(S)-3-[(1-Azetidinyl)methyl]-8-methyl-1,5-dioxa-9-aza-9-spiro[5.5]undecyl}car-bonyl)-3-methylbutyl]-3-isobutyl-2-piperazinone] | 351 ± 68 | 37.5 | – | – | – | – | – | – | – | – | –
4 | CNC(=O)c1ccc(N2C(=S)N(c3ccc(C#N)c(C(F)(F)F)c3)C(=O)C2(C)C)cc1F [Enzalutamide, enzalutamide, reference compound] | – | – | – | – | – | – | – | – | – | – | TWO-WAY ANOVA p (tumor size at the end of the study) vs. Vehicle ([4]; 30 mg/kg p.o. QD, n.s. = not significant): n.s.; CR (complete regression) = number of mice [4, 6]: 0; PR (partial regression) = number of mice [4, 6]: 0; TFS (Tumor Free Survival) = number of complete regressions recorded up to Group Day End [4, 6]: 0
5 | CC(=O)O[C@H]1C(=O)[C@@]2(C)[C@H]([C@H](OC(=O)c3ccccc3)[C@]3(O)C[C@H](OC(=O)[C@H](O)[C@@H](NC(=O)c4ccccc4)c4ccccc4)C(C)=C1C3(C)C)[C@]1(OC(C)=O)CO[C@@H]1C[C@@H]2O [Paclitaxel, paclitaxel, reference compound] | – | – | – | – | – | – | – | – | – | – | Tumor Size day 29 ([5]; MKN45 CDX, female BALB/c nude mice, Mean ± SEM): 554.9 ± 52.8 mm^3; T/C ([5]; day 29, tumor-to-control ratio (volume/volume)): 46.6%

Source: patent publication US20250115571A1, “OXOPIPERAZINE DERIVATIVES” (Inthera Bioscience AG, priority 2017, published 2025)
